Patent US20240024324A1, “KINASE INHIBITOR COMBINATIONS FOR CANCER TREATMENT” (Merck Patent GmbH, priority 2020, published 2024)

How the values were obtained:
GSC6-27 [1] = test: GSC lines: sensitivity in vitro (IC50); format: cell-based; settings: GSC6-27 line in vitro
Protocol: (§1) FIG. 1: In vitro analyses in GSC lines. (A) Western blot analysis of protein expression; (B) IC50 of M2698; (C) IC50 of pimasertib; and (D) apoptotic GSC11, GSC7-2, and GSC17 cells after treatment with M2698, pimasertib, or M2698+pimasertib combination. Single agents were tested at their IC50; half the IC50 of each compound was used for the combination.
(§2) All GSC lines expressed Akt. Relatively high pAkt expression in GSC17, GSC7-2, GSC231, GSC11, GSC20, GSC6-27, and GSC8-11 lines compared with GSC272 and GSC267 (FIG. 1A).

GSC11 [2] = test: GSC lines: sensitivity in vitro (IC50); format: cell-based
Protocol: as §1, §2

GSC17 [3] = test: GSC lines: sensitivity in vitro (IC50); format: cell-based
Protocol: as §1, §2

GSC20 [4] = test: GSC lines: sensitivity in vitro (IC50); format: cell-based
Protocol: as §1, §2

GSC231 [5] = test: GSC lines: sensitivity in vitro (IC50); format: cell-based; settings: GSC231 line in vitro
Protocol: as §1, §2

GSC7-2 [6] = test: GSC lines: sensitivity in vitro (IC50); format: cell-based
Protocol: as §1, §2

[7] = test system: Her2+/HR− Breast Cancer PDX; test: PDX models of Her2+/HR- breast cancer; format: in vivo
GSC6-27 [8] = test: Orthotopic GSC xenograft model; format: in vivo, mice
Protocol: (§3) The in vivo effects of M2698 and pimasertib, alone and in combination, were assessed in the GSC models after orthotopic implantation into mice. Treatment duration and time of euthanasia post-implantation was 5-10 weeks. Endpoints were expression of PD markers pS6 and pERK, proliferation marker Ki67, apoptosis as measured by TUNEL, tumor volume and survival.

GSC272 [9] = test: Orthotopic GSC xenograft model; format: in vivo, mice
Protocol: as §3

GSC11 [10] = test: Orthotopic GSC xenograft model; format: in vivo, mice
Protocol: as §3

GSC17 [11] = test: Orthotopic GSC xenograft model; format: in vivo, mice
Protocol: as §3

GSC20 [12] = test: Orthotopic GSC xenograft model; format: in vivo, mice
Protocol: as §3

GSC231 [13] = test: Orthotopic GSC xenograft model; format: in vivo, mice
Protocol: as §3

GSC7-2 [14] = test: Orthotopic GSC xenograft model; format: in vivo, mice
Protocol: as §3

[15] = in vivo; cited from earlier work
[16] = test system: Non-Small Lung Cancer (NSCLC) Brain Metastases PDX; test: PDX models of NSCLC brain metastases; format: in vivo
GSC11 [17] = test: Induction of apoptosis in GSC lines in vitro; format: cell-based
Protocol: (§4) FIG. 1: In vitro analyses in GSC lines. (A) Western blot analysis of protein expression; (B) IC50 of M2698; (C) IC50 of pimasertib; and (D) apoptotic GSC11, GSC7-2, and GSC17 cells after treatment with M2698, pimasertib, or M2698+pimasertib combination. […]
(§5) Induction of apoptosis by M2698, pimasertib, and the combination was measured in three of five GSC lines that were sensitive to M2698 in vitro.

GSC17 [18] = test: Induction of apoptosis in GSC lines in vitro; format: cell-based
Protocol: as §4, §5

GSC7-2 [19] = test: Induction of apoptosis in GSC lines in vitro; format: cell-based
Protocol: as §4, §5

GSC272 [20] = test: GSC lines: sensitivity in vitro (IC50); format: cell-based; settings: GSC272 line in vitro
Protocol: FIG. 1: In vitro analyses in GSC lines. (A) Western blot analysis of protein expression; (B) IC50 of […]; (C) IC50 of pimasertib; and (D) apoptotic GSC11, GSC7-2, and GSC17 cells after treatment with […], pimasertib, or […]+pimasertib combination. Single agents were tested at their IC50; half the IC50 of each compound was used for the combination. In vitro IC50 data were used to select GSC lines for in vivo studies; […] All GSC lines expressed Akt. Relatively high pAkt expression in GSC17, GSC7-2, GSC231, GSC11, GSC20, GSC6-27, and GSC8-11 lines compared with GSC272 and GSC267 (FIG. 1A). […] (FIG. 1B).

[21] = test system: human cholangiocarcinoma cancer PDX; test: PDX models of cholangiocarcinoma; format: in vivo, mice; settings: 20 mg/kg each agent QD PO
Source text: The objective of this experiment was to evaluate the antitumor activity of M2698 alone and in combination with Pimasertib in a panel of 13 Patient-Derived Xenograft models representing human cholangiocarcinoma cancer derived from Chinese patients in immune-deficient mice.
Vehicle: 0.5% Methocel/0.25% Tween20 in Milli-Q Water. Tumors from three untreated mice were collected as satellite samples when reached a tumor volume between 300-500 mm3.

Colorectal Cancer PDX = test: 75 PDX models of colorectal cancer; format: in vivo; settings: CRC PDX; M2698 25 mg/kg po qd, Pimasertib 20 mg/kg po qd, Cetuximab 20 mg/kg ip q2w
Source text: Of the 75 models, 25 were wild type, 25 KRas mutant, and 25 BRaf mutant.

SMILES: O=C(NCC(O)CO)c1ccncc1Nc1ccc(I)cc1F (stereo not drawn) [pimasertib, N-(2,3-dihydroxy-propyl)-3-(2-fluoro-4-iodo-phenylamino)-isonicotinamide, reference compound]
- IC50 (GSC6-27 [1]): > 2000 nM
- sensitivity in vitro (GSC11 [2]; GSC11 line): most sensitive
- IC50 (GSC11 [2]; GSC11 line in vitro): < 2000 nM
- sensitivity in vitro (GSC17 [3]; GSC17 line): moderately sensitive
- IC50 (GSC17 [3]; GSC17 line in vitro): < 2000 nM
- sensitivity in vitro (GSC20 [4]; GSC20 line): insensitivity
- IC50 (GSC20 [4]; GSC20 line in vitro): > 2000 nM
- IC50 (GSC231 [5]): < 2000 nM
- sensitivity in vitro (GSC7-2 [6]; GSC7-2 line): not sensitive
- IC50 (GSC7-2 [6]; GSC7-2 line in vitro): > 2000 nM
- tumor volume over the duration of the experiment [7]: stasis of the tumor volume
- pERK expression in orthotopic tumor (GSC6-27 [8]; GSC6-27, PD marker): significantly reduced pERK
- median survival (GSC6-27 [8]; GSC6-27 orthotopic, vs vehicle): no significant effects on survival
- tumor volume / tumor growth (GSC6-27 [8]; GSC6-27 orthotopic, vs vehicle): significant tumor growth inhibition
- pERK expression in orthotopic tumor (GSC272 [9]; GSC272, PD marker): significantly reduced pERK
- pS6 expression in orthotopic tumor (GSC272 [9]; GSC272, PD marker): significantly reduced pS6
- cross-pathway reduction of pS6, trend over time (GSC272 [9]; GSC272, from 7.5-10 weeks): diminished
- median survival (GSC272 [9]; GSC272 orthotopic, vs vehicle): no significant effects on survival
- tumor volume / tumor growth (GSC272 [9]; GSC272 orthotopic, vs vehicle): significant tumor growth inhibition
- pERK expression in orthotopic tumor (GSC11 [10]; GSC11, PD marker): significantly reduced pERK
- median survival (GSC11 [10]; GSC11 orthotopic, vs vehicle): no significant effects on survival
- pERK expression in orthotopic tumor (GSC17 [11]; GSC17, PD marker): significantly reduced pERK
- median survival (GSC17 [11]; GSC17 orthotopic, vs vehicle): no significant effects on survival
- tumor volume / tumor growth (GSC17 [11]; GSC17 orthotopic, vs vehicle): not affected
- proliferation (Ki67 by immunohistochemistry) (GSC17 [11]; GSC17 tumor sections, compared to vehicle): significantly reduced proliferation
- pERK expression in orthotopic tumor (GSC20 [12]; GSC20, PD marker): significant effects of pimasertib treatment on pERK protein were not seen
- median survival (GSC20 [12]; GSC20 orthotopic, vs vehicle): no significant effects on survival
- tumor volume / tumor growth (GSC20 [12]; GSC20 orthotopic, vs vehicle): had not responded
- pERK expression in orthotopic tumor (GSC231 [13]; GSC231, PD marker): significantly reduced pERK
- pS6 expression in orthotopic tumor (GSC231 [13]; GSC231, PD marker): significantly reduced pS6
- cross-pathway reduction of pS6, trend over time (GSC231 [13]; GSC231, from 7.5-10 weeks): diminished
- median survival (GSC231 [13]; GSC231 orthotopic, vs vehicle): no significant effects on survival
- tumor volume / tumor growth (GSC231 [13]; GSC231 orthotopic, vs vehicle): trend towards a significant response
- pERK expression in orthotopic tumor (GSC7-2 [14]; GSC7-2, PD marker): significantly reduced pERK
- median survival (GSC7-2 [14]; GSC7-2 orthotopic, vs vehicle): no significant effects on survival
- tumor volume / tumor growth (GSC7-2 [14]; GSC7-2 orthotopic, vs vehicle): significant tumor growth inhibition
- number of apoptotic cells/field (GSC7-2 [14]; GSC7-2 xenografts, after 10 weeks): 65.00±60.80 cells/field
- apoptosis in xenografts vs control (GSC7-2 [14]; GSC7-2 xenografts, at 7.5 weeks): Neither M2698, pimasertib, nor combination treatment significantly affected apoptosis
- blood-brain barrier penetration [15]: brain-penetrant
- tumor control rate (TCR) [16]: 16%
- apoptotic percentage (GSC11 [17]; GSC11, monotherapy at 2×IC50): 62%
- apoptotic percentage (GSC11 [17]; GSC11, monotherapy at the IC50): 56%
- apoptotic percentage (GSC17 [18]; GSC17, monotherapy at 2×IC50): 12%
- apoptotic percentage (GSC17 [18]; GSC17, monotherapy at the IC50): 11%
- apoptotic percentage (GSC7-2 [19]; GSC7-2, monotherapy at 2×IC50): 17%
- apoptotic percentage (GSC7-2 [19]; GSC7-2, monotherapy at the IC50): 13%
- IC50 (GSC272 [20]): > 2000 nM
- tumor stasis, number of tumor samples [21]: 1/12
- tumor stasis, share of tumor samples [21]: 8%
- tumor control rate (TCR) (Colorectal Cancer PDX): 32%
- tumor control rate (TCR), models controlled/models (Colorectal Cancer PDX): 24/74
